The results in this text go back to ChEMBL document CHEMBL5579834 (Eur J Med Chem, 2024).

For orientation: IC50 means the concentration that inhibits the measured activity by half.

For series [1], the system named is Ebolavirus. As to the kind of experiment: Antiviral activity against HIV-based lentiviral pseudotyped Ebolavirus harboring mucin domain deleted GP infected in HEK293T cells assessed as inhibition of viral entry preincubated with virus for 1 hr followed by cell infection and measured after 48 hrs by luminescence assay. In kind it is functional, organism-based. As to conditions: Orthoebolavirus, HEK-293T.

The subject of series [2] is Marburgvirus. Description: Antiviral activity against HIV-based lentiviral pseudotyped Marburgvirus harboring mucin domain deleted GP infected in HEK293T cells assessed as inhibition of viral entry preincubated with virus for 1 hr followed by cell infection and measured after 48 hrs by luminescence assay. It counts as functional, organism-based. As to conditions: Orthomarburgvirus, HEK-293T.

Series [3] can be described thus: Selectivity index, ratio of CC50 for HEK293T cells to IC50 for antiviral activity against HIV-based lentiviral pseudotyped Ebolavirus harboring mucin domain deleted GP infected in HEK293T cells assessed as inhibition of viral entry. In kind it is toxicity, cell-based. As to conditions: human, read-out: Ratio CC50/IC50.
The nature of series [4]: Selectivity index, ratio of CC50 for HEK293T cells to IC50 for antiviral activity against HIV-based lentiviral pseudotyped Marburgvirus harboring mucin domain deleted GP infected in HEK293T cells assessed as inhibition of viral entry. It counts as toxicity, cell-based. As to conditions: human, read-out: Ratio CC50/IC50.
Series [5] deals with Ebolavirus. As to the kind of experiment: Antiviral activity against pseudotyped Ebolavirus harboring GP. As to conditions: Orthoebolavirus. In kind it is functional, organism-based.

Molecules are shown by their SMILES.

In the case of `CCN1CCN(CCCC(=O)O[C@H]2C(C)(C)[C@H]3CC[C@]2(C)C3)CC1`, the IC50 in series [1] came to 2.4 µM; in series [2], 11.3 µM.
For the molecule `CC1(C)[C@H]2CC[C@](C)(C2)[C@H]1OC(=O)CCN1CCCCC1`, the IC50 in series [1] was determined as 17 µM; in series [2], 31 µM. The selectivity ratio in series [3] stood at 20; in series [4], 11.
Regarding `C[C@@H]1[C@H]2C[C@@H](C[C@H]1OC(=O)CN1CCOCC1)C2(C)C`, the IC50 in series [1] was found to be 106 µM. For the same molecule, in series [3], the selectivity ratio is 1.
As to `C[C@@H]1[C@H]2C[C@@H](C[C@H]1OC(=O)CN1CCN(C)CC1)C2(C)C`, the IC50 in series [1] was determined as 4.8 µM; in series [2] it was 47.6 µM.
For the molecule `CN1CCN(CC(=O)O[C@H]2C(C)(C)[C@H]3CC[C@]2(C)C3)CC1`, the IC50 turned out to be 20.4 µM in series [1] and 27.5 µM in series [2].
Molecule `CCN1CCN(S(=O)(=O)C[C@]23CC[C@H](CC2=O)C3(C)C)CC1` showed an IC50 in series [5] of 91 µM.
Regarding `C[C@@H]1[C@H]2C[C@@H](C[C@H]1OC(=O)CCN1CCOCC1)C2(C)C`, the IC50 was 57 µM in series [1] and 156 µM in series [2]. The selectivity ratio in series [3] turned out to be 4; in series [4], 1.
As for `C[C@@H]1[C@H]2C[C@@H](C[C@H]1OC(=O)CN1CCN(c3ccccc3)CC1)C2(C)C`, the IC50 was 9 µM in series [1] and 25 µM in series [2]. Besides, the selectivity ratio came out at 6 in series [3] and 2 in series [4].
As to `CC1(C)[C@H]2CC[C@](C)(C2)[C@H]1OC(=O)CN1CCCCC1`, the IC50 in series [1] stood at 17.1 µM; in series [2] it was 164 µM. Besides, the selectivity ratio amounted to 13 in series [3] and 1 in series [4].
Regarding `CC1(C)[C@H]2CC[C@](C)(C2)[C@H]1OC(=O)CCN1CCN(c2ccccc2)CC1`, the IC50 in series [1] came out at 10 µM; in series [2], 7.3 µM. Further, the selectivity ratio amounted to 2 in series [3] and 3 in series [4].
Take `CC1(C)[C@H]2CC[C@](C)(C2)[C@H]1OC(=O)CCCN1CCCCC1`: the IC50 in series [1] was 1.9 µM; in series [2] it was 13 µM.
Turning to `CC1(C)[C@@H]2CC[C@@]1(CS(=O)(=O)N1CCOCC1)C(=O)C2`, in series [5], the concentration for half-maximal inhibition (IC50) was determined as 0.9 µM.
Turning to `C[C@@H]1[C@H]2C[C@@H](C[C@H]1OC(=O)CCCN1CCN(C)CC1)C2(C)C`, the concentration for half-maximal inhibition (IC50) in series [1] was 2.8 µM; in series [2], 24 µM. Besides, the figures for the selectivity ratio in series [3] and in series [4] were 58 and 6, respectively.
In series [5], `CC1(C)[C@@H]2CC[C@@]1(CS(=O)(=O)N1CCCCC1)C(=O)C2` returned an IC50 of 60 µM.
In series [5], `CN1CCN(S(=O)(=O)C[C@]23CC[C@H](CC2=O)C3(C)C)CC1` displayed an IC50 of 540 µM.
As to `CCN1CCN(CCC(=O)O[C@H]2C(C)(C)[C@H]3CC[C@]2(C)C3)CC1`, the IC50 in series [1] worked out at 8.1 µM; in series [2], 25 µM. In addition, the selectivity ratio came to 44 in series [3] and 14 in series [4].
With `C[C@@H]1[C@H]2C[C@@H](C[C@H]1OC(=O)CCN1CCN(c3ccccc3)CC1)C2(C)C`, the IC50 in series [1] worked out at 54 µM; in series [2] it was 27 µM. Further, the selectivity ratio in series [3] turned out to be 2; in series [4], 4.
The like results for `CN1CCN(CCC(=O)O[C@H]2C(C)(C)[C@H]3CC[C@]2(C)C3)CC1` were, in that order, 10.1 µM, 29 µM, 45 and 16.
Turning to `CN(C)CCOc1ccc(/C(=C(/CCCl)c2ccccc2)c2ccccc2)cc1` [TOREMIFENE], the results for the IC50 in series [1] and in series [2] were 0.2 µM and 0.7 µM, respectively.
For `CC1(C)[C@H]2CC[C@](C)(C2)[C@H]1OC(=O)CCCN1CCN(c2ccccc2)CC1`, the values for the half-inhibitory concentration (IC50) in series [1] and in series [2] were 0.54 µM and 6 µM, respectively. Besides, the figures for the selectivity ratio in series [3] and in series [4] were 22 and 10, respectively.
As to `CC1(C)[C@H]2CC[C@](C)(C2)[C@H]1OC(=O)CCN1CCOCC1`, the IC50 was 57.9 µM in series [1] and 64.4 µM in series [2].
As to `C[C@@H]1[C@H]2C[C@@H](C[C@H]1OC(=O)CCCN1CCCCC1)C2(C)C`, the results for the half-maximal inhibitory concentration (IC50) in series [1] and in series [2] were 4 µM and 9 µM, respectively. Moreover, the values for the selectivity ratio in series [3] and in series [4] were 30 and 13, respectively.
With `C[C@@H]1[C@H]2C[C@@H](C[C@H]1OC(=O)CN1CCCCC1)C2(C)C`, the values for the IC50 in series [1] and in series [2] were 42 µM and 107 µM, respectively. Moreover, the selectivity ratio in series [3] turned out to be 7; in series [4], 3.
For the molecule `CC1(C)[C@H]2CC[C@](C)(C2)[C@H]1OC(=O)CN1CCN(c2ccccc2)CC1`, the IC50 in series [1] amounted to 5.8 µM; in series [2] it was 56 µM. Moreover, the selectivity ratio was 17 in series [3] and 1 in series [4].
Take `CC1CCN(CC(=O)O[C@H]2C(C)(C)[C@H]3CC[C@]2(C)C3)CC1`: the IC50 in series [1] came out at 20.5 µM; in series [2], 20.4 µM.
For the molecule `C[C@@H]1[C@H]2C[C@@H](C[C@H]1OC(=O)CCCN1CCN(c3ccccc3)CC1)C2(C)C`, the half-maximal inhibitory concentration (IC50) was found to be 7.8 µM in series [1] and 18 µM in series [2]. In addition, the selectivity ratio is 8 in series [3] and 3 in series [4].
Turning to `CC1CCN(CCCC(=O)O[C@H]2C(C)(C)[C@H]3CC[C@]2(C)C3)CC1`, the IC50 in series [1] is 2.8 µM; in series [2], 26.4 µM.
Regarding `CC1(C)[C@H]2CC[C@](C)(C2)[C@H]1OC(=O)CN1CCOCC1`, the IC50 in series [1] stood at 13 µM; in series [2] it was 213 µM. Moreover, the selectivity ratio came to 22 in series [3] and 1 in series [4].
With `C[C@@H]1[C@H]2C[C@@H](C[C@H]1OC(=O)CCCN1CCOCC1)C2(C)C`, the IC50 was found to be 21 µM in series [1] and 39 µM in series [2]. The selectivity ratio is 5 in series [3] and 2 in series [4].
On to `CCN1CCN(CC(=O)O[C@H]2C(C)(C)[C@H]3CC[C@]2(C)C3)CC1`, for which the figures for the concentration for half-maximal inhibition (IC50) in series [1] and in series [2] were 9.1 µM and 30.1 µM, respectively.
Consider `C[C@@H]1[C@H]2C[C@@H](C[C@H]1OC(=O)CCN1CCCCC1)C2(C)C`, for which the figures for the IC50 in series [1] and in series [2] were 14.3 µM and 24 µM, respectively. Besides, the selectivity ratio is 23 in series [3] and 13 in series [4].
For the molecule `CC1CCN(CCC(=O)O[C@H]2C(C)(C)[C@H]3CC[C@]2(C)C3)CC1`, the IC50 turned out to be 3.9 µM in series [1] and 22 µM in series [2]. Also, the selectivity ratio in series [3] came out at 48; in series [4], 8.
With `C[C@@H]1[C@H]2C[C@@H](C[C@H]1OC(=O)CCN1CCN(C)CC1)C2(C)C`, the IC50 worked out at 4.9 µM in series [1] and 13.9 µM in series [2].
With `CN1CCN(CCCC(=O)O[C@H]2C(C)(C)[C@H]3CC[C@]2(C)C3)CC1`, the IC50 in series [1] worked out at 3.1 µM; in series [2], 20.7 µM.
For the molecule `CC1(C)[C@H]2CC[C@](C)(C2)[C@H]1OC(=O)CCCN1CCOCC1`, the 50% inhibitory concentration (IC50) in series [1] is 6.5 µM; in series [2] it was 68 µM. Besides, the selectivity ratio worked out at 40 in series [3] and 3 in series [4].
